Where a name gives a salt, the structure may show the parent alone.
How the values were obtained:
[1] = test system: mouse grafted liver cancer H22; test: Activity against mouse grafted liver cancer H22; type: in vivo, Kunming mice; conditions: for Tumor weight: X ± SD, n = 10; for Average weight (g)-after administration / Average weight(g)-after administration: mouse, in vivo
In short: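 Male Kunming mice inoculated with liver cancer H22, 10 per group; compounds (10%, 0.4, 0.2 or 0.1 ml/mouse) injected from the day after inoculation on alternate days, 6 doses. Tumours excised the day after last dose; inhibition rate from mean tumour weight versus saline controls; repeated three times.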

[2] = test system: LLC mouse Lewis lung carcinoma; test: In vitro anti-tumor IC50 (MTT), LLC; type: cell-based; conditions: Table 4; hydrochloride
Description: (§1) (1) Single cell suspension was seeded into 96-well plates (the cells was diluted in the PRMI-1640 minimum medium to 3×10^4 cells/ml, […] diluted cells/well). […] The experiments were performed in quadruplicate.
(§2) (2) The medium was removed. Solutions of the anti-tumor agents (50 compounds) were prepared in a freshly prepared medium at serial concentrations. […] of the solution was added into each well. Incubation was continued for 48 hours.
(§3) (3) 20 ug of 2 mg/ml MTT was added into each well, and incubated for 4 hours.
(§4) (4) The medium was removed from the well. The microplates were swiftly turned down to throw-off the medium. […] of DMSO was added into each well, and vortexed at room temperature for 10 minutes.
(§5) (5) OD value (λ=570 nm) was measured with an Enzyme-Linked Detector.
(§6) (6) The graph of cell vitality was plotted, and IC50 was calculated.

[3] = test system: A-549 human lung adenocarcinoma; test: In vitro anti-tumor IC50 (MTT), A-549; type: cell-based; conditions: Table 4; hydrochloride
Description: as §1, §2, §3, §4, §5, §6

[4] = test system: SMMC-7721 human hepatic carcinoma; test: In vitro anti-tumor IC50 (MTT), SMMC-7721; type: cell-based; conditions: Table 4; hydrochloride
Description: as §1, §2, §3, §4, §5, §6

[5] = test system: HepG2 cells; test: Cell status of HepG2 cells treated with sample (HBV screening); type: cell-based; conditions: 200 μg/ml, HepG2, four days after infection
Description: 1.5 Screening for the agents: The HepG2 cells were counted and 1.5×10^4 cells/well were seeded into a 96-well plate. After incubation overnight in an atmosphere of CO2 at 37° C., each of the experimental samples in a given concentration was added to the cells. After incubation at 37 °C for 24 hrs, the HepG2 treated with the samples were infected with vAcGFPHBVc of 100 MOI. A negative control and a positive control were also included. Four days after infection, the growth of the cells were observed, and the HBV e antigen in the supernatant was measured with the HBV e antigen diagnostic kit.

[6] = test system: Bel-7402 human hepatic carcinoma; test: In vitro anti-tumor IC50 (MTT), Bel-7402; type: cell-based; conditions: Table 4; hydrochloride
Description: as §1, §2, §3, §4, §5, §6

[7] = test system: mouse grafted uterine cervix cancer U14; test: Activity against mouse grafted uterine cervix cancer U14; type: in vivo, Kunming mice; conditions: for Tumor weight: X ± SD, n = 10; for Average weight (g)-after administration: mouse, in vivo
[8] = test system: mouse lung cancer Lewis; test: Activity against mouse grafted lung cancer Lewis; type: in vivo, Kunming mice; conditions: for Inhibition rate (%) / Tumor weight: Lewis; for Tumor weight: X ± SD, n = 10
[9] = H22, first experiment, 10 mg/kg i.v., 6 doses
[10] = H22, first experiment, 20 mg/kg i.v., 6 doses
[11] = H22, first experiment, 40 mg/kg i.v., 6 doses
[12] = H22, second experiment, 10 mg/kg
[13] = H22, second experiment, 20 mg/kg
[14] = H22, second experiment, 40 mg/kg
[15] = H22, third experiment, 10 mg/kg
[16] = H22, third experiment, 20 mg/kg
[17] = H22, third experiment, 40 mg/kg
[18] = U14, first experiment, 10 mg/kg
[19] = U14, first experiment, 20 mg/kg
[20] = U14, first experiment, 40 mg/kg
[21] = U14, second experiment, 10 mg/kg
[22] = U14, second experiment, 20 mg/kg
[23] = U14, second experiment, 40 mg/kg
[24] = U14, third experiment, 10 mg/kg
[25] = U14, third experiment, 20 mg/kg
[26] = U14, third experiment, 40 mg/kg

## CC(C)C1CC23OC1(O)C/C(=C\Nc1ccc(O)cc1)C2CCC3C (stereo not shown) [Compound 6, Curcumol p-hydroxy aniline hydrochloride]
[1]; [9]
  Inhibition rate (%): 7.0%
  Tumor weight: 2.8 ± 0.37 g
[1]; [10]
  Inhibition rate (%): 47.0%
  Tumor weight: 1.60 ± 0.29 g
[1]; [11]
  Inhibition rate (%): 61.9%
  Tumor weight: 1.15 ± 0.31 g
[1]; [12]
  Inhibition rate (%): 13.9%
  Tumor weight: 2.6 ± 0.37 g
[1]; [13]
  Inhibition rate (%): 47.7%
  Tumor weight: 1.58 ± 0.29 g
[1]; [14]
  Inhibition rate (%): 60.3%
  Tumor weight: 1.21 ± 0.31 g
[1]; [15]
  Inhibition rate (%): 7.3%
  Tumor weight: 2.8 ± 0.37 g
[1]; [16]
  Inhibition rate (%): 46.0%
  Tumor weight: 1.63 ± 0.29 g
[1]; [17]
  Inhibition rate (%): 56.9%
  Tumor weight: 1.30 ± 0.31 g
[1]; 10 mg/kg
  Average weight (g)-after administration: 21.2 g
  Average weight(g)-after administration: 21.0 g
[1]; 20 mg/kg
  Average weight (g)-after administration: 20.0 g
  Average weight(g)-after administration: 22.0 g
[1]; 40 mg/kg
  Average weight (g)-after administration: 21.4 g
  Average weight(g)-after administration: 22.4 g
[1]; iv, 10 mg/kg
  Average weight(g)-after administration: 22.0 g
[1]; iv, 20 mg/kg
  Average weight(g)-after administration: 22.2 g
[1]; iv, 40 mg/kg
  Average weight(g)-after administration: 22.1 g
[1]; three different concentrations (40, 20, 10 mg/kg), i.v.
  inhibitory effect against mouse grafted liver cancer H22 (in words): good inhibitory effect
[2]
  IC50 (ug/ml) against tumor cell lines, LLC: 3.8 µg/mL
[3]
  IC50 (ug/ml) against tumor cell lines, A-549: 2.1 µg/mL
[4]
  IC50 (ug/ml) against tumor cell lines, SMMC-7721: 4.0 µg/mL
[5]
  Cell status: Normal
[6]
  IC50 (ug/ml) against tumor cell lines, Bel-7402: 1.0 µg/mL
[7]; [18]
  Inhibition rate (%): 37.3%
  Tumor weight: 2.2 ± 0.37 g
[7]; [19]
  Inhibition rate (%): 65.0%
  Tumor weight: 1.23 ± 0.29 g
[7]; [20]
  Inhibition rate (%): 72.6%
  Tumor weight: 0.96 ± 0.31 g
[7]; [21]
  Inhibition rate (%): 32.3%
  Tumor weight: 2.3 ± 0.37 g
[7]; [22]
  Inhibition rate (%): 64.7%
  Tumor weight: 1.20 ± 0.29 g
[7]; [23]
  Inhibition rate (%): 73.5%
  Tumor weight: 0.90 ± 0.31 g
[7]; [24]
  Inhibition rate (%): 35.9%
  Tumor weight: 2.32 ± 0.37 g
[7]; [25]
  Inhibition rate (%): 63.5%
  Tumor weight: 1.32 ± 0.29 g
[7]; [26]
  Inhibition rate (%): 72.1%
  Tumor weight: 1.01 ± 0.31 g
[7]; all the three concentrations, i.v., female mice
  inhibitory effect against mouse grafted uterine cervix cancer U14 (in words): good inhibitory effect
[7]; 10 mg/kg
  Average weight (g)-after administration: 22.1 g
[7]; 20 mg/kg
  Average weight (g)-after administration: 21.6 g
[7]; 40 mg/kg
  Average weight (g)-after administration: 21.6 g
[8]; first experiment, 10 mg/kg
  Inhibition rate (%): 29.5%
  Tumor weight: 2.10 ± 0.37 g
[8]; first experiment, 20 mg/kg
  Inhibition rate (%): 42.6%
  Tumor weight: 1.71 ± 0.29 g
[8]; first experiment, 40 mg/kg
  Inhibition rate (%): 51.7%
  Tumor weight: 1.44 ± 0.31 g
[8]; second experiment, 10 mg/kg
  Inhibition rate (%): 25.3%
  Tumor weight: 1.80 ± 0.37 g
[8]; second experiment, 20 mg/kg
  Inhibition rate (%): 44.4%
  Tumor weight: 1.34 ± 0.29 g
[8]; second experiment, 40 mg/kg
  Inhibition rate (%): 50.6%
  Tumor weight: 1.19 ± 0.31 g
[8]; third experiment, 10 mg/kg
  Inhibition rate (%): 33.3%
  Tumor weight: 1.80 ± 0.37 g
[8]; third experiment, 20 mg/kg
  Inhibition rate (%): 47.4%
  Tumor weight: 1.42 ± 0.29 g
[8]; third experiment, 40 mg/kg
  Inhibition rate (%): 52.6%
  Tumor weight: 1.28 ± 0.31 g
[8]; first of three concentrations (40 mg/kg)
  inhibitory effect against mouse lung cancer Lewis: 51.6%
[8]; second of three concentrations (20 mg/kg)
  inhibitory effect against mouse lung cancer Lewis: 44.8%
[8]; third of three concentrations (10 mg/kg)
  inhibitory effect against mouse lung cancer Lewis: 29.4%
